Data reported in PMC8895377, “In Vivo Targeting Replication Protein A for Cancer Therapy” (Frontiers in Oncology, 2022).
Where two headings read alike, the source gives them in different places.

What was measured:
[1] = tested on: H460 NSCLC cells; assay: CCK-8 viability assay; type: cell-based, human; conditions: H460, 48 h, compared to 551 predecessor
Method: Cell lines were obtained from ATCC and maintained as monolayer cultures in RPMI 1640 medium (H460) or Dulbecco’s Modified Eagle's Medium (DMEM) (A549) supplemented with 10% fetal bovine serum. H460 and A549 cells were plated at 2.5 × 10^3 cells/well and A2780 and GCT27 cells plated at 5 × 10^3 cells/well in a 96-well plate and incubated for 18–24 h prior to treatments. Cells were treated with the indicated concentration of RPAi for 48 h. The vehicle (DMSO) concentration was held constant at 1%. Cell metabolism/viability was assessed by a mitochondrial metabolism assay (CCK-8) as we have described previously ([10]). The generation of the water-soluble formazan product by cellular dehydrogenases is proportional to the number of living cells. Following incubation with CCK-8 reagent, absorbance was measured at 450 nm with a BioTek Synergy H1 plate reader. Values were compared to those of vehicle-treated controls to determine percent viability, and the results represent the average and SEM of triplicate determinations.

[2] = Intrinsic clearance and half-life in mouse microsomes; type: in vitro ADME
From the text: (§1) Toward the goal to identify efficacious and safe RPAi 329 treatment regimens, we conducted single-agent screening in two lung cancer cell line-derived xenograft models. […] Having optimized cellular uptake and solubility via the addition of the propyl morpholino in 329 and 2004, we sought to determine how these modifications impact in vivo anticancer activity using two NSCLC models, A549 adenocarcinoma and H460 large cell carcinoma. […] Analyses of intrinsic clearance and half-life were conducted in mouse and rat microsomes ( Table 1 ). […] These values are less than the rate of 48, which is considered rapid clearance. In rat microsomes, rates of ~64 were obtained for 329 and are less than the rapid rate of 71.

[3] = Intrinsic clearance and half-life in rat microsomes; type: in vitro ADME; conditions: for microsomal CLint: rat, microsomes
From the text: as §1

[4] = Pharmacokinetics in mice (plasma, HPLC-MS/MS); type: in vivo; conditions: for AUC(0-inf): read-out: AUC 0-inf_obs; for k el: read-out: Lambda_z (converted); for MRT inf: read-out: MRT 0-inf_obs
Method: A method to quantify 329 from plasma has been developed using an internal standard, liquid–liquid extraction, and HPLC-MS/MS. Mouse plasma samples were prepared from treated mice at the indicated times frozen at -80°C until analysis. Plasma samples were thawed (20 µl) and transferred to polypropylene tubes, and the internal standard is added (20 µl of 0.1 ng/µl). Samples were diluted in 0.1 M phosphate buffer (pH = 7.4) and equal volume of methyl tertiary butyl ether. The samples were mixed and centrifuged at 12,000×g for 5 min, and the supernatant was transferred to a clean polypropylene tube. The solvent was evaporated to dryness, brought up in mobile phase analyzed by HPLC-MS/MS (ABSciex 4000). The mobile phase is delivered via gradient using acetonitrile and 0.1% formic acid on an Agilent Zorbax 300SB-C8 150 × 4.6 mm, 5-µm column. The mass spectrometer utilized an electrospray ionization probe run in positive mode. Multiple reaction monitoring was employed with Q1/Q3 (m/z) transitions for 329 at 718.2/128.1 and 687.3/128.1 for the internal standard. The lower limit of quantification is 0.1 ng/ml using 20 µl of plasma.
PK parameters were assessed in a series of studies in immunocompetent mice both IV and IP ( Figure 7B and Table 4 ). […] The half-life was also well within acceptable range (9 h).

[5] = IP, DMSO vehicle, 200 mg/kg, mice
[6] = IP, NMP vehicle, 20 mg/kg, mice
[7] = IP, NMP vehicle, 200 mg/kg, mice
[8] = mouse, plasma, ip, 20 mg/kg, IP, NMP vehicle, 20 mg/kg, mice
[9] = mouse, plasma, ip, 20 mg/kg, NMP vehicle, mice
[10] = mouse, plasma, ip, 200 mg/kg, DMSO vehicle, mice
[11] = mouse, plasma, ip, 200 mg/kg, IP, DMSO vehicle, 200 mg/kg, mice
[12] = mouse, plasma, ip, 200 mg/kg, IP, NMP vehicle, 200 mg/kg, mice
[13] = mouse, plasma, ip, 200 mg/kg, NMP vehicle, mice
[14] = mouse, plasma, iv, 2 mg/kg, IV, NMP vehicle, 2 mg/kg, mice
[15] = mouse, plasma, iv, 2 mg/kg, NMP vehicle, mice

For `CCOc1ccc2cc(C3CC(c4ccc(I)cc4)=NN3C(=O)CCCC(=O)NCCCN3CCOCC3)c(Cl)nc2c1` (stereo not shown) [compound 329], the “single-agent cellular anticancer activity (CCK-8)” value [1] was “potent single-agent activity”, the microsomal CLint ([2]; Mouse microsomes) was 31.7 µL/min/mg and the half-life ([2]; Mouse microsomes, read-out: t1/2) was 0.732 h. It also gave a half-life ([2]; mouse, rat, microsomes, in mice and rats, read-out: half-lives) of 0.333 to 0.667 h, a half-life ([3]; Rat microsomes) of 0.362 h and a microsomal CLint ([3]; Rat microsomes, read-out: CLint) of 63.8 µL/min/mg. For the same compound, the microsomal CLint ([3]; rat microsomes, read-out: rate of clearance) was about 64 µL/min/mg, the “AUC and Cmax compared to 551” value ([4]; DMSO/Tween formulation, data not shown) was “significant reduction in AUC and Cmax” and the “AUMC 0-inf_obs” value [4, 5] was 95023.52 ng/ml*h^2. The CI/F_obs [4, 5] was 0.0902 (mg/kg)/(ng/ml)/h, the Vz/F_obs [4, 5] was 4.015 (mg/kg)/(ng/ml) and the “AUMC 0-inf_obs” value [4, 6] was 98489.24 ng/ml*h^2. The CI/F_obs [4, 6] was 0.0012 (mg/kg)/(ng/ml)/h, the Vz/F_obs [4, 6] was 0.011 (mg/kg)/(ng/ml) and the “AUMC 0-inf_obs” value [4, 7] was 947545.56 ng/ml*h^2. For the same compound, the Vz/F_obs [4, 7] was 0.172 (mg/kg)/(ng/ml), the “AUMC 0-inf_obs” value ([4]; IV, NMP vehicle, 2 mg/kg, mice) was 1897.83 ng/ml*h^2 and the CI/F_obs ([4]; IV, NMP vehicle, 2 mg/kg, mice) was 0.0014 (mg/kg)/(ng/ml)/h. For the same compound, the Vz/F_obs ([4]; IV, NMP vehicle, 2 mg/kg, mice) was 0.007 (mg/kg)/(ng/ml), the bioavailability ([4]; mouse, plasma, intraperitoneal, IP at 20 mg/kg versus IV dosing, read-out: absolute bioavailability) was 84% and the AUC(0-inf) [4, 8] was 16500 ng·h/mL. It also gave a k el [4, 8] of 3.06e-05 s⁻¹, an MRT inf [4, 8] of 5.98 h and a half-life ([4]; mouse, plasma, ip, 20 mg/kg, IP, NMP vehicle, 20 mg/kg, mice, read-out: t1/2 (converted)) of 6.3 h. For the same compound, the AUC(0-t) [4, 9] was 16400 ng·h/mL, the Cmax [4, 9] was 2510 ng/mL and the Tmax [4, 9] was 2 h. For the same compound, the AUC(0-t) [4, 10] was 968 ng·h/mL, the Cmax [4, 10] was 92.1 ng/mL and the Tmax [4, 10] was 0.25 h. For the same compound, the AUC(0-inf) [4, 11] was 2220 ng·h/mL, the k el [4, 11] was 5.56e-06 s⁻¹ and the MRT inf [4, 11] was 42.8 h. For the same compound, the half-life ([4]; mouse, plasma, ip, 200 mg/kg, IP, DMSO vehicle, 200 mg/kg, mice, read-out: t1/2 (converted)) was 30.9 h, the AUC(0-inf) [4, 12] was 64300 ng·h/mL and the k el [4, 12] was 1.94e-05 s⁻¹. The MRT inf [4, 12] was 14.7 h, the half-life ([4]; mouse, plasma, ip, 200 mg/kg, IP, NMP vehicle, 200 mg/kg, mice, read-out: t1/2 (converted)) was 9.31 h and the half-life ([4]; mouse, plasma, ip, 200 mg/kg, IP, new formulation, 200 mg/kg, read-out: half-life (converted)) was 9 h. The AUC(0-t) [4, 13] was 52000 ng·h/mL, the Cmax [4, 13] was 2910 ng/mL and the Tmax [4, 13] was 8 h. It also gave an AUC(0-inf) [4, 14] of 1410 ng·h/mL, a k el [4, 14] of 5.83e-05 s⁻¹ and an MRT inf [4, 14] of 1.35 h. It also gave a half-life ([4]; mouse, plasma, iv, 2 mg/kg, IV, NMP vehicle, 2 mg/kg, mice, read-out: t1/2 (converted)) of 3.28 h, an AUC(0-t) [4, 15] of 1400 ng·h/mL and a Cmax [4, 15] of 841 ng/mL. For the same compound, the Tmax [4, 15] was 0.5 h.
